# Reference: publication PMC4768221, “Subcellular localization of anthracyclines in cultured rat cardiomyoblasts as possible predictors of cardiotoxicity” (Investigational New Drugs, 2015)
# Like-named read-outs stand apart in the source and are kept apart here.
# What was measured:
# [1] = Cytotoxicity assay (MTT, inhibition of cell proliferation); assay type: cell-based, rat; conditions: rat
# Method: (§1) The cytotoxic activity of the drugs was assayed by measuring their inhibitory effects on H9c2(2-1) cell proliferation. To measure the cytotoxicity of doxorubicin, daunorubicin, and their analogs, the tetrazolium dye method was used. Cells were seeded at 1 × 10^4 cells/well in 48-well plates. After 24 h, the cells were incubated with different concentrations of anthracyclines for 72 h in triplicate in a final volume of 1 ml. Then, 50 μl of a sterile aqueous solution of 3-[4,5-dimethylthiazol-2-yl]-2,5-diphenyl-tetrazolium bromide (5 mg/ml) (Sigma-Aldrich) was added to each well for an additional 3 h. The blue formazan precipitate was dissolved in DMSO (Sigma-Aldrich), and the absorbance of solutions was measured at 540 nm. For each experiment, determinations were performed in three replicates. The IC50 values (the anthracycline concentration effective at inhibiting cell growth after exposure to the drug for 72 h) were read from survival curves, which were fitted to an exponential equation using Xact v. 7.2, a statistical software tool by SciLab (Germany).
# H9c2(2-1) cells [2] = experiment: Cell cycle analysis by flow cytometry; assay type: cell-based, rat; conditions: for Cells in G2/M phase / Cells in S phase / Cells in G0/G1 phase: 24 h treatment at equitoxic concentration (IC50); for Cells in G2/M phase: untreated control 8.7 %; for Cells in S phase: untreated control 11 %; for Cells in G0/G1 phase: untreated control 80.1 %; for Cell cycle arrest pattern: 24 h treatment at IC50, data not shown
# Method: The cell cycle was analyzed by flow cytometry using a Becton-Dickinson FACSCanto II flow cytometer. H9c2(2-1) cells were seeded at 1 × 10^4 cells/cm^2 in 10 cm^2 culture flasks. After the cells were allowed to grow for 24 h, the medium was replaced and the cells were treated with an equitoxic anthracycline concentration corresponding to IC50. Treatment was performed for 24 h, and then the cells were washed in PBS and trypsinized. After the cells were washed in PBS again, they were fixed in 70 % ethanol and incubated for 1 h on ice. Fixed cells were washed twice in PBS, resuspended in commercially available propidium iodide staining solution and then subjected to flow cytometric assay. The percentages of H9c2(2-1) cells present in G1, S, and G2 phases of the cell cycle after drug treatment were analyzed using FACSDiva 6.1 software.
# H9c2(2-1) cells [3] = experiment: Cellular uptake (fluorimetric, ethanol/HCl extraction); assay type: cell-based, rat; conditions: 10 μM, 1 h; for Accumulation relative to parent drug (times higher): vs DOX or DRB
# Method: Anthracycline uptake was estimated by fluorimetric measurements after the drugs were extracted with an ethanol/HCl mixture as described by Riganti et al.. H9c2(2-1) cells (2 × 10^5) were seeded onto 40 × 11 mm tissue culture dishes for 24 h. Then, the cells were treated in growth medium with 10 μM anthracycline solution at 37 °C for 1 h. After this time, the cells were gently scraped and suspended in 5 ml of ice-cold PBS. The cell suspension aliquots were centrifuged at 1500 rpm for 5 min and then washed twice in ice-cold PBS. Next, cell pellets were collected and resuspended in 2 ml of a 1:1 mixture of ethanol:0.3 M HCl, and the fluorescence intensities of these suspensions were measured at 20 °C using a Perkin-Elmer LS 55 spectrofluorimeter. The optimal excitation and emission wavelengths were 485 and 590 nm, respectively. To estimate the drug concentrations, calibration curves in the concentration range of 0.01–0.5 μM were prepared. Because the fluorescence was quenched slightly in the presence of cells, each point of the calibration curves was measured in the presence of 2 × 10^5 cells suspended in a mixture of ethanol/HCl.
# [4] = tested on: double-stranded calf thymus DNA; experiment: Ethidium bromide displacement assay (affinity to DNA); assay type: binding; conditions: for Kapp (apparent DNA binding constant): ethidium bromide displacement, mean of three ± S.D.; for Kapp relative to parent drug (times lower): vs DOX or DRB
# Method: The binding of the anthracyclines to double-stranded calf thymus DNA was tested by the ethidium bromide displacement assay. This method is based on the competition between the tested compound and ethidium bromide for DNA intercalation sites. The fluorescence intensity of ethidium bromide increases upon DNA binding. Addition of a compound displacing intercalated ethidium bromide leads to quenching of the fluorescence of the DNA/ethidium bromide complex. The percentage of initial fluorescence was plotted against the concentration of the added compound, and the IC50 value was read. The IC50 value is defined as the concentration of added compound required to reduce the fluorescence of the DNA/ethidium bromide complex to 50 %. IC50 values were then used to calculate the apparent binding constants of the anthracyclines to DNA.
# [5] = design: method as in PMID 16158943; conditions: animal models, compared to DOX and DRB; cited from earlier work
# [6] = tested on: H9c2(2-1) rat cardiomyoblasts; experiment: Cytotoxicity assay (MTT, inhibition of cell proliferation); assay type: cell-based; conditions: 72 h
# Method: as §1
# [7] = H9c2(2-1) rat cardiomyoblast cells, H9c2(2-1) cells, 72 h exposure, MTT, mean of six experiments ± S.D., read-out: Cytotoxicity IC50
# [8] = H9c2(2-1) cells, 72 h exposure, MTT, mean of six experiments ± S.D., read-out: Cytotoxicity IC50
# [9] = H9c2(2-1), parent DOX or DRB vs analog
SMILES,"IC50 at 72 h [1, 7] [nM]",Cells in G2/M phase (H9c2(2-1) cells [2]) [%],Cells in S phase (H9c2(2-1) cells [2]) [%],Cells in G0/G1 phase (H9c2(2-1) cells [2]) [%],Cellular accumulation higher than DOXM (H9c2(2-1) cells [3]),Kapp (apparent DNA binding constant) [4],Cardiotoxicity in vivo [5],"IC50 at 72 h [1, 8] [nM]","Cytotoxic activity of the parent compound relative to this analog (times higher) [6, 9]",Accumulation relative to DOXM (times higher) (H9c2(2-1) cells [3]) [times],Accumulation relative to parent drug (times higher) (H9c2(2-1) cells [3]),Kapp relative to parent drug (times lower) [4],Cell cycle arrest pattern (H9c2(2-1) cells [2]),Accumulation relative to other tested compounds (times higher) (H9c2(2-1) cells [3]; other than parent DRB),IC50 at 72 h [1] [nM],Cytotoxic activity of the parent compound relative to this analog (times higher) ([6]; rat) [times]
"COc1cccc2c1C(=O)c1c(O)c3c(c(O)c1C2=O)C[C@@](O)(C(=O)CO)C[C@@H]3O[C@H]1C[C@H](N)[C@H](O)[C@H](C)O1 [DOX, doxorubicin, reference compound]",35 ± 4,40.6,9.0,50.4,approximately 30%,18.1 ± 0.41 × 10^5 [M^-1],most cardiotoxic,,,,,,,,,
COc1cccc2c1C(=O)c1c(O)c3c(c(O)c1C2=O)C[C@@](O)(C(=O)CO)C[C@@H]3O[C@H]1C[C@H](N=CN2CCCCCC2)[C@H](O)[C@H](C)O1 [DOXH],,13.5,36.4,50.1,,7.30 ± 0.14 × 10^5 [M^-1],lower cardiotoxicity,87 ± 7,~2.5 times,~2,1.5 times,2.5–2.8 times,,,,
COc1cccc2c1C(=O)c1c(O)c3c(c(O)c1C2=O)C[C@@](O)(C(=O)CO)C[C@@H]3O[C@H]1C[C@H](N=CN2CCOCC2)[C@H](O)[C@H](C)O1 [DOXM],,13.0,33.5,53.5,,0.90 ± 0.12 × 10^5 [M^-1],lower cardiotoxicity,138 ± 18,approximately 4 times,,,approximately 20 times,,,,
"COc1cccc2c1C(=O)c1c(O)c3c(c(O)c1C2=O)C[C@@](O)(C(C)=O)C[C@@H]3O[C@H]1C[C@H](N)[C@H](O)[C@H](C)O1 [DRB, daunorubicin, reference compound]",76 ± 7,,,,,11.7 ± 0.22 × 10^5 [M^-1],most cardiotoxic,,,,,,G2/M arrest,,,
COc1cccc2c1C(=O)c1c(O)c3c(c(O)c1C2=O)C[C@@](O)(C(C)=O)C[C@@H]3O[C@H]1C[C@H](N=CN2CCCCCC2)[C@H](O)[C@H](C)O1 [DRBH],,,,,,4.1 ± 0.08 × 10^5 [M^-1],lower cardiotoxicity,172 ± 14,2 times,,more than 1.5 times,2.5–2.8 times,S phase arrest,5–7 times,,
COc1cccc2c1C(=O)c1c(O)c3c(c(O)c1C2=O)C[C@@](O)(C(C)=O)C[C@@H]3O[C@H]1C[C@H](N=CN2CCOCC2)[C@H](O)[C@H](C)O1 [DRBM],,,,,,0.64 ± 0.03 × 10^5 [M^-1],lower cardiotoxicity,,,,,approximately 20 times,S phase arrest,,626 ± 18,8
